{"source": "patent US11413278B2", "about": "“Compounds and methods for promoting stress resistance” (priority 2015, dated 2022)", "key": {"[1]": {"tested_on": "FOXO3", "assay": "FOXO3 siRNA knockdown: dependency for H2O2-resistance", "format": "cell-based, human", "procedure": "For qPCR analysis, WI-38 cells were treated with small molecules (at 10 μM) (biological quadruplicates) for 24 hrs and processed for RNA isolation and reverse transcription (RT) with the Cells-to-Ct Kit (Life Technologies), following manufacturer's instructions. RT products were diluted with H2O and used for qPCR analysis on an ABI 7300 system (Life Technologies) (technical triplicates). Relative expression levels of target genes were normalized to the genes B2M, PPIA and GAPDH. To knock down the expression of FOXO3 or NRF2, WI-38 cells were transfected, using the RNAiMAX reagents (Life Technologies), with siRNA oligos (at 10 nM final concentration, 10 ml culture medium) for FOXO3 (Life Technologies) or NRF2 (Integrated DNA Technologies) on 10-cm petri dishes for 36 hrs, and then detached and aliquoted onto 96-well (for qPCR analysis) or 384-well plates (for H2O2-stress treatment). ˜24 hrs later, small molecules were introduced and incubated with cells for 24 hrs. Cells were then either processed with the Cells-to-Ct Kit to prepare RT products for qPCR analysis or subjected to H2O2 (700 μM) for 3 hrs and assayed for viability. The knockdown efficiency of FOXO3 or NRF2 was checked at 36 hrs post-transfection and at the end as well. […]\nApplicants used siRNA to knock down FOXO3 expression by ˜70% in an attempt to identify whether the activation of these genes depends on activity of FOXO3 and/or NRF2. […] We used siRNA to knock down FOXO3 expression by ˜60% to 70% (FIG. 3; see data in Table 6). […] (Given the caveat that FOXO3 was not fully knocked down, partial dependency was scored when the H2O2-resistance capacity was reduced by at least 25% but less than 50% upon siRNA knockdown). At least for Gr-7A and Gr-7C, which are structurally related, the observed FOXO3-dependency for H2O2-resistance is consistent with their strong effects to induce FOXO3 target genes (Tables 1a-1f, Table 6, & Table 15), including SOD2 and GADD45A."}, "[2]": {"tested_on": "NRF2", "assay": "in vitro", "format": "cell-based, human", "details": "for NRF2-dependency for H2O2-resistance, at 10 uM - with H2O2, 2nd experiment: experiment 2 (2nd); for NRF2-dependency for H2O2-resistance, 2nd experiment: with H2O2, NRF2 knockdown in WI-38 cells, YES = resistance reduced by at least 50%, partial = 25% to 50%"}, "[3]": {"tested_on": "mTOR", "assay": "mTOR inhibition (RPS6 phosphorylation status), In-Cell Western", "format": "cell-based, human", "procedure": "In-Cell Western assays were performed, following a standard immuno-staining protocol. Briefly, WI-38 cells were treated with small molecules for 24 hrs, and then processed and incubated with primary antibody cocktail (Cell Signaling, mouse anti-RPS, 1:25; rabbit-anti-pRPS6-(Ser-235/236), 1:100) overnight at 4° C. Next day, samples were processed and incubated with fluorophore-conjugated secondary antibodies (Cell Signaling, DyLight 680-goat anti-mouse, 1:500; DyLight 800-goat anti-rabbit, 1:1,000). Images were collected on an Odyssey Imager (LI-COR) and analyzed with the Image Studio Lite software (version 5.0.21).\nMammalian target of rapamycin (mTOR) is a crucial regulator of cell growth and metabolism and has been implicated in aging and many diseases, including cancer, diabetes and neurological diseases (Dazert and Hall, 2011; Zoncu et al., 2011). […] In addition, the anti-diabetes drug metformin (Kalender et al., 2010), as well as other AMPK activators such as 2-deoxy-D-glucose (Inoki et al., 2003) and AICAR (Shaw et al., 2004), could inhibit mTORC1. Applicants examined the effects of our molecules (at three doses, 5 μM, 10 μM and 20 μM) on the phosphorylation status of ribosomal protein S6 (RPS6), a readout of mTOR activity, to ask whether they could inhibit mTOR.\nIn-Cell Western assays were performed, following the same procedures to analyze DNA-damage markers. WI-38 cells were incubated with small molecules for 24 hrs, and then processed and incubated with primary antibody cocktail (mouse anti-RPS, 1:25; rabbit-anti-pRPS6, 1:100) overnight at 4° C. Next day, samples were processed and incubated with fluorophore-conjugated secondary antibodies (goat anti-mouse, 1:500; goat anti-rabbit, 1:1,000) in antibody dilution buffer. Images were collected on an Odyssey Imager (LI-COR) and analyzed with the Image Studio Lite software."}, "[4]": {"tested_on": "WI-38 cells", "details": "for Percentage of propidium iodide-positive dead cells (no H2O2 stress treatment), at 10 uM: negative control 0.41% ± 0.23%", "procedure": "WI-38 cells were seeded on 384-well plates for 24 hrs and then incubated with small molecules for 24 hrs. […] Images were collected on an INCell Analyzer 2000 (GE) and analyzed with the Developer software."}}, "data": [{"smiles": "NS(=O)(=O)c1ccc(NC(=O)c2ccc([N+](=O)[O-])o2)cc1", "note": "[Gr-1A]", "values": [{"measurement": "FOXO3-dependency for H2O2-resistance (experiment 3)", "setting": "[1]; 10 uM, with & without H2O2, FOXO3 knockdown in WI-38 cells, YES = resistance reduced by at least 50%, partial = 25% to 50%", "result": "No"}, {"measurement": "FOXO3-dependency for H2O2-resistance (experiment 1 & 2)", "setting": "[1]; 10 uM, with H2O2, FOXO3 knockdown in WI-38 cells, YES = resistance reduced by at least 50%, partial = 25% to 50%", "result": "No"}, {"measurement": "I = FOXO3-dependency for H2O2-resistance", "setting": "[1]; score", "result": 0}, {"measurement": "I = FOXO3-dependency for H2O2-resistance", "setting": "[1]; summary score", "result": 0}, {"measurement": "Survival of NRF2 siRNA-transfected cells in the absence of H2O2", "setting": "[2]", "result": "could reduce the survival"}, {"measurement": "NRF2-dependency for H2O2-resistance, at 10 uM - with H2O2, 2nd experiment", "setting": "[2]; 10 uM", "result": "2nd, partial."}, {"measurement": "NRF2-dependency for H2O2-resistance, 2nd experiment", "setting": "[2]; 10 uM", "result": "partial"}, {"measurement": "Assay 17: NRF2-dependency for H2O2-resistance", "setting": "[2]; 10 uM, YES/NO", "result": "YES"}, {"measurement": "NRF2-dependency of H2O2-resistance (NRF2 siRNA knockdown)", "setting": "[2]; at least 2 of 3 independent experiments", "result": "significantly attenuate"}, {"measurement": "viability of non-stressed cells, reduced by", "setting": "[2]; human, 24 h, 10 uM", "result": "by 30%)"}, {"measurement": "J = NRF2-dependency for H2O2-resistance", "setting": "[2]; score", "result": 1}, {"measurement": "J = NRF2-dependency for H2O2-resistance", "setting": "[2]; summary score", "result": 1}, {"measurement": "G = mTOR down-regulation", "setting": "[3]; 2-point score", "result": 0}, {"measurement": "G = mTOR down-regulation", "setting": "[3]; summary score", "result": 0}, {"measurement": "Percentage of propidium iodide-positive dead cells (no H2O2 stress treatment), at 10 uM", "setting": "[4]", "result": "0.79% ± 0.36%,"}]}, {"smiles": "N=C1S/C(=C\\c2cn(-c3ccccc3)nc2-c2cccs2)C(=O)N1c1nccs1", "note": "[Gr-6C]", "values": [{"measurement": "I = FOXO3-dependency for H2O2-resistance", "setting": "[1]; score", "result": 0}, {"measurement": "I = FOXO3-dependency for H2O2-resistance", "setting": "[1]; summary score", "result": 0}, {"measurement": "NRF2-dependency for H2O2-resistance, at 10 uM - with H2O2, 2nd experiment", "setting": "[2]; 10 uM", "result": "2nd, partial."}, {"measurement": "NRF2-dependency for H2O2-resistance, 2nd experiment", "setting": "[2]; 10 uM", "result": "partial."}, {"measurement": "J = NRF2-dependency for H2O2-resistance", "setting": "[2]; score", "result": 0}, {"measurement": "J = NRF2-dependency for H2O2-resistance", "setting": "[2]; summary score", "result": 0}, {"measurement": "G = mTOR down-regulation", "setting": "[3]; 2-point score", "result": 0}, {"measurement": "G = mTOR down-regulation", "setting": "[3]; summary score", "result": 0}, {"measurement": "Percentage of propidium iodide-positive dead cells (no H2O2 stress treatment), at 10 uM", "setting": "[4]", "result": "0.66% ± 0.26%,"}]}, {"smiles": "CNC(=O)/C(C#N)=C/c1c(Oc2ccc(C(C)(C)C)cc2)nc2ccccn2c1=O", "note": "[Gr-5D]", "values": [{"measurement": "I = FOXO3-dependency for H2O2-resistance", "setting": "[1]; score", "result": 0}, {"measurement": "I = FOXO3-dependency for H2O2-resistance", "setting": "[1]; summary score", "result": 0}, {"measurement": "J = NRF2-dependency for H2O2-resistance", "setting": "[2]; score", "result": 0}, {"measurement": "J = NRF2-dependency for H2O2-resistance", "setting": "[2]; summary score", "result": 0}, {"measurement": "G = mTOR down-regulation", "setting": "[3]; 2-point score", "result": 0}, {"measurement": "G = mTOR down-regulation", "setting": "[3]; summary score", "result": 0}, {"measurement": "Percentage of propidium iodide-positive dead cells (no H2O2 stress treatment), at 10 uM", "setting": "[4]", "result": "0.51% ± 0.18%,"}]}, {"smiles": "Oc1ccccc1-c1noc(-c2ccccc2O)n1", "note": "[O27]", "values": [{"measurement": "I = FOXO3-dependency for H2O2-resistance", "setting": "[1]; score", "result": 0}, {"measurement": "I = FOXO3-dependency for H2O2-resistance", "setting": "[1]; summary score", "result": 0}, {"measurement": "J = NRF2-dependency for H2O2-resistance", "setting": "[2]; score", "result": 0}, {"measurement": "J = NRF2-dependency for H2O2-resistance", "setting": "[2]; summary score", "result": 0}, {"measurement": "mTOR inhibition (p-RPS6/RPS6), qualitative", "setting": "[3]", "result": "consistently reduced the ratios"}, {"measurement": "G = mTOR down-regulation", "setting": "[3]; 2-point score", "result": 2}, {"measurement": "mTOR down-regulation by p-RPS6 assays", "setting": "[3]; Assay 14(q), at 5 uM, 10 uM & 20 uM", "result": "YES"}, {"measurement": "G = mTOR down-regulation", "setting": "[3]; summary score", "result": 2}, {"measurement": "Percentage of propidium iodide-positive dead cells (no H2O2 stress treatment), at 10 uM", "setting": "[4]", "result": "0.50% ± 0.17%,"}]}, {"smiles": "O=C(Nc1cccc(Cl)c1)c1ccc([N+](=O)[O-])o1", "note": "[Gr-1D]", "values": [{"measurement": "I = FOXO3-dependency for H2O2-resistance", "setting": "[1]; score", "result": 0}, {"measurement": "I = FOXO3-dependency for H2O2-resistance", "setting": "[1]; summary score", "result": 0}, {"measurement": "J = NRF2-dependency for H2O2-resistance", "setting": "[2]; score", "result": 0}, {"measurement": "J = NRF2-dependency for H2O2-resistance", "setting": "[2]; summary score", "result": 0}, {"measurement": "G = mTOR down-regulation", "setting": "[3]; 2-point score", "result": 0}, {"measurement": "G = mTOR down-regulation", "setting": "[3]; summary score", "result": 0}, {"measurement": "PI cell-death imaging without H2O2 (indicating potential toxicity)", "setting": "[4]; Assay 8(k), without H2O2, at 10 uM", "result": "YES"}, {"measurement": "Percentage of propidium iodide-positive (dead) cells under normal conditions (qualitative)", "setting": "[4]; WI-38, no H2O2", "result": "increased the percentage"}, {"measurement": "PI-positive dead cells under normal conditions", "setting": "[4]; WI-38, no H2O2, control 0.4±0.2%", "result": "4.2±1.4", "unit": "%"}, {"measurement": "Percentage of propidium iodide-positive dead cells (no H2O2 stress treatment), at 10 uM", "setting": "[4]", "result": "4.16% ± 1.39%,"}]}]}
